Source: PMC6499206, “Quantification of Volatile Metabolites Derived From Garlic (Allium sativum) in Human Urine” (Frontiers in Nutrition, 2019)

Experiment: Quantification of garlic-derived metabolites in human urine after ingestion of 3 g raw garlic (SIDA, SAFE, HRGC-MS / HRGC-GC-MS)
Type: in vivo
Conditions: human urine; also refs 5, 16
Text: Human urine samples were obtained from 18 volunteers (age 22–38 years, mean 27 years; 11 females, 7 males); thereby, one volunteer conducted the whole experimental series twice. At the time of examination, volunteers reported no known illness that might have potentially influenced the metabolism or the excretion of urine. The test persons were instructed to avoid foods that were rich in sulfur-containing substances at the testing day as well as 2 days preceding the testing day, namely garlic, onion, wild garlic, chives, cabbage, and leek, and were only allowed to consume the garlic sample provided in the course of the experiments. Additionally, subjects were asked to keep records of the food (including food supplements) and beverages they consumed during these 3 testing days. Generally, the overall panelists' requirements were in accordance with our previous studies ([5], [16]).
On the sampling day, the outer garlic cloves of a whole garlic bulb were peeled and cut into ~3 mm cubes by using a garlic cutter (Genius GmbH, Limburg/Lahn, Germany). Subsequently these cubes were thoroughly mixed and aliquoted into 3 g portions. Three to four test persons conducted the experiment at the same day. Each test person was asked to ingest a garlic portion of 3 g. In total, eight consecutive urine samples were provided by each test person, comprising one whole urine set. The samples were collected in sterile brown glass bottles, with sampling times as follows: one sample was provided directly prior to garlic consumption. The series of the second to eighth sample was then obtained at about 0.5, 1, 2, 4, 6, 8, and 24 h after garlic consumption, respectively. Between the first urine sample (prior to garlic consumption) and the seventh urine sample (8 h after garlic consumption) test persons only spent urine at the specific time points mentioned before. Another sample was provided at the next morning (24 h after garlic consumption). Between the samples provided 8 and 24 h after garlic consumption no urine was collected. All samples were immediately placed into a −80°C freezer and were kept frozen until further analysis.
The samples of each set were termed according to their sampling time. The following list provides the time intervals that are related to the respective sample name: • - pre: before garlic consumption • - 0.5 h post: 0.4–0.8 h after garlic consumption • - 1 h post: 0.9–1.3 h after garlic consumption • - 2 h post: 1.8 h−2.2 h after garlic consumption • - 4 h post: 3.8–4.4 h after garlic consumption • - 6 h post: 5.8–6.4 h after garlic consumption • - 8 h post: 7.8–8.4 h after garlic consumption • - 24 h post: 23.8–25.6 h after garlic consumption
A creatinine kit (Labor+Technik Eberhard Lehmann GmbH, Berlin, Germany) was used to determine the creatinine content in each urine sample. The determination principle of this kit is based on the reaction of creatinine with picric acid under basic conditions (Jaffé reaction). The formed complex was detected photometrically at a wavelength of 492 nm.
For quantification purposes, the deuterated standards ^2H3-AMS, ^2H3-AMSO, and ^2H3-AMSO2 were added to the sample and stirred for 10 min. Subsequently, DCM was added in a ratio of 1:2 (DCM/human urine; v/v) and this solution was stirred for further 30 min at room temperature. To isolate the volatile fraction from the urine samples we then applied SAFE-distillation ([17]), thereby distilling the respective samples at 50°C. After completion of the distillation process, 10 mL of DCM were applied in each case to rinse the SAFE apparatus and to ensure complete transition of the volatile compounds. This process was repeated with another 10 mL of DCM. After thawing, the obtained aqueous distillate phase was extracted three times with 25 mL DCM. The organic phases were combined, dried over anhydrous Na2SO4 and concentrated to a total volume of 100 μL by means of Vigreux distillation and subsequent micro-distillation at 50°C. […]

presence as metabolite in human urine after garlic consumption: exclude the presence
SMILES: C=CCS(=O)(=O)CC=C [diallyl sulfone]
